Measurements taken from patent publication US10774080B2, “Pyrimidine compound as JAK kinase inhibitor” (THERAVANCE BIOPHARMA R&D IP, LLC, priority 2017, dated 2020).

How the values were obtained:
[1] = system: IL-13-induced STAT6 phosphorylation in BEAS-2B cells; assay: Assay 2: cellular JAK potency, IL-13-induced STAT6 phosphorylation in BEAS-2B cells; format: cell-based; conditions: Homo sapiens, read-out: pIC50 for inhibition of IL-13 induced STAT6 phosphorylation (converted)
Description: Assay 2: Cellular JAK Potency Assay: Inhibition of IL-13-Induced STAT6 Phosphorylation in BEAS-2B Cells
The cellular potency assay for JAK inhibition was carried out by measuring interleukin-13 (IL-13, R&D Systems) induced STAT6 phosphorylation in BEAS-2B human lung epithelial cells (ATCC). The anti-STAT6 antibody (Cell Signaling Technologies) was conjugated to AlphaScreen acceptor beads (Perkin Elmer), while the anti-pSTAT6 (pTyr641) antibody (Cell Signaling Technologies) was biotinylated using EZ-Link Sulfo-NHS-Biotin (Thermo Scientific).
BEAS-2B cells were grown at 37° C. in a 5% CO2 humidified incubator in 50% DMEM/50% F-12 medium (Life Technologies) supplemented with 10% FBS (Hyclone), 100 U/mL penicillin, 100 μg/mL streptomycin (Life Technologies), and 2 mM GlutaMAX (Life Technologies). […] After a minimum of 2 h incubation, the assay plates were read on the EnVision plate reader. AlphaScreen luminescence signals were recorded and utilized to calculate the percent inhibition values based on DMSO and background controls.
For dose-response analysis, percent inhibition data were plotted vs. compound concentrations, and IC50 values were determined from a 4-parameter robust fit model with the Prism software. Results may also be expressed as the negative logarithm of the IC50 value, pIC50.

[2] = system: IL-13 stimulated STAT6 phosphorylation in normal human epidermal keratinocytes; assay: Assay 13: inhibition of IL-13 stimulated pSTAT6 in normal human epidermal keratinocytes; format: cell-based; conditions: Keratinocyte, read-out: pIC50 for inhibition of IL-13 induced STAT6 phosphorylation (converted)
Description: Assay 13: Inhibition of IL-13 Stimulated pSTAT6 in Normal Human Epidermal Keratinocytes
The potency of test compounds for inhibition of interleukin-13 (IL-13) stimulated STAT6 phosphorylation was measured in the normal human epidermal keratinocytes (ATCC) using AlphaLisa. Phosphorylated STAT6 was measured via the AlphaLISA SureFire Ultra pSTAT6 (Tyr641) kit (PerkinElmer).
Primary epidermal keratinocytes were cultured in a 37° C., 5% CO2 humidified incubator in dermal cell basal medium (ATCC) supplemented with keratinocyte growth kit (ATCC) and 1× Pen/Strep (Life Technologies). […]
After cytokine stimulation, cells were lysed with 5 ul of 5× AlphaLisa Lysis Buffer (PerkinElmer) containing 1× PhosStop and Complete tablets (Roche). […] Phosphorylated STAT6 was measured via the pSTAT6 AlphaLisa kit (PerkinElmer). […] Luminescence was measured with excitation at 689 nm and emission at […] using an EnVision plate reader (PerkinElmer) under green filtered <100 lux light.
Luminescence signals were recorded and utilized to calculate the percent inhibition values based on DMSO and controls. For dose-response analysis, percent inhibition data were plotted vs. compound concentrations, and IC50 values were determined from a 4-parameter robust fit model with the Prism software.

[3] = Hanford, minipig, in vivo
Description: Assay 6: Dermal Pharmacokinetics in Hanford Mini-Pig Skin
The objective of this Study was to determine the epidermal, dermal and plasma pharmacokinetics of compound (I) following a 24 hour exposure to intact Hanford mini-pig skin.
Twenty-four hours prior to dosing, the hair was shaved from the back of 10-15 kg Hanford mini-pigs exposing an area of at least 700 cm^2 (about 10% of body surface). At time zero, compound (I) was applied to the back of the mini-pigs at a dose of 25 μL/cm^2. The skin was covered with an adhesive cover to prevent loss of compound to the cage or bedding. Following 24 h exposure, the backs were gently washed with soap and water to remove non-absorbed drug and patted dry. Immediately following this washing, blood was drawn by venipuncture from the mini-pigs. The outer skin (stratum corneum) was then removed by adhesive tape stripping. Upon exposure of the epidermis a 0.5 cm punch biopsy was taken. The epidermis and dermis were quickly separated, weighed and snap frozen. Similar samples were taken at 94 h, and 168 h (7 days) post-dosing in mini-pigs. Epidermis and dermis samples were homogenized in 1:10 (w/v) water using a Covaris ultrasonic homogenizer. Samples were extracted in 3 volumes of acetonitrile and quantified against a standard curve via LC-MS analysis.

SMILES: CCS(=O)(=O)N1[C@@H]2CCC[C@H]1C[C@H](N(C)c1nc(CO)c(F)c(Nc3cc(C)[nH]n3)n1)C2 [Compound (I), (2-(((1R,3s,5S)-9-(ethylsulfonyl)-9-azabicyclo[3.3.1]nonan-3-yl)(methyl)amino)-5-fluoro-6-((5-methyl-1H-pyrazol-3-yl)amino)pyrimidin-4-yl)methanol]
- IC50 [1]: 3.16 nM
- IC50 [2]: 5.01 nM
- plasma exposure (below the limit of quantitation) [3]: < 0.001 µg/mL
